Where two headings read alike, the source gives them in different places. Where only a bound is given, the exact number is not on record here.

Common to all, as to assay type: cell-based
The target of test [1] is T1, human glucose-dependent insulinotropic peptide receptor (GIPR) (Homo sapiens, UniProt P48546).
T1 construct: expressed in transfected cells
T1 sequence (P48546 22-466): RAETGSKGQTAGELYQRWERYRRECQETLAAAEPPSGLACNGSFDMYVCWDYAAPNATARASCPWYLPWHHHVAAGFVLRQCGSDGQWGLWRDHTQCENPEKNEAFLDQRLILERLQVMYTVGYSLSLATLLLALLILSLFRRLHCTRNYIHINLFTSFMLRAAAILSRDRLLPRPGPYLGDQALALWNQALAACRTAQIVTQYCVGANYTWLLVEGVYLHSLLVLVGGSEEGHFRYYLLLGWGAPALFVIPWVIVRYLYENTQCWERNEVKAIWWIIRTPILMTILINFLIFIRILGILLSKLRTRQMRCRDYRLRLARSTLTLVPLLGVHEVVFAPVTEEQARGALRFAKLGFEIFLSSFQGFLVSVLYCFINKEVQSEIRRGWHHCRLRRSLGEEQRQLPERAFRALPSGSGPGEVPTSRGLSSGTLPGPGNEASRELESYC
As to the kind of experiment: cAMP assay, human GIPR cells. The settings on record: cAMP assay. The gist of the method: (§1)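 Peptide-stimulated cAMP measured by two-step HTRF after a 30 min room-temperature incubation with receptor-expressing cells (hGLP-1R, hGIPR at 1×10^5 cells/ml; hGCGR at 2×10^5 cells/ml). Duplicate dilutions; EC50 from 4-parameter logistic fit of % Delta F.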
(In general: Changes in cAMP serve as a functional read-out for many G protein-coupled receptors.)

The target of test [2] is T2, human GLP-1 receptor (GLP-1R) (Homo sapiens, UniProt P43220).
T2 construct: expressed in transfected cells
T2 sequence (P43220 24-463): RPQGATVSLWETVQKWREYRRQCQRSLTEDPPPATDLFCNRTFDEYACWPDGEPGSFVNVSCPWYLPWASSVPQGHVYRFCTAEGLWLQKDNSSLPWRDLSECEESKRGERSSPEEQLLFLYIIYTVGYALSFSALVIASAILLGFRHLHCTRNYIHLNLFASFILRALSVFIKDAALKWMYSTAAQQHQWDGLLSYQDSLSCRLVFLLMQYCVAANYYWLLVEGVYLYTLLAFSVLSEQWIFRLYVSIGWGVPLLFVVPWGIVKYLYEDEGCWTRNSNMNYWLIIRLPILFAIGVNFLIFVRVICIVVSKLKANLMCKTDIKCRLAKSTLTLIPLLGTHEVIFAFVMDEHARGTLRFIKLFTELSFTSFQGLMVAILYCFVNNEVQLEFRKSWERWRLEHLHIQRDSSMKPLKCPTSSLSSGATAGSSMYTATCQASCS
The test can be described thus: cAMP assay, human GLP-1R cells. The gist of the method: as §1

In test [3] the target is T3, human glucagon receptor (GCGR) (Homo sapiens, UniProt P47871).
T3 construct: expressed in transfected cells
T3 sequence (P47871 26-477): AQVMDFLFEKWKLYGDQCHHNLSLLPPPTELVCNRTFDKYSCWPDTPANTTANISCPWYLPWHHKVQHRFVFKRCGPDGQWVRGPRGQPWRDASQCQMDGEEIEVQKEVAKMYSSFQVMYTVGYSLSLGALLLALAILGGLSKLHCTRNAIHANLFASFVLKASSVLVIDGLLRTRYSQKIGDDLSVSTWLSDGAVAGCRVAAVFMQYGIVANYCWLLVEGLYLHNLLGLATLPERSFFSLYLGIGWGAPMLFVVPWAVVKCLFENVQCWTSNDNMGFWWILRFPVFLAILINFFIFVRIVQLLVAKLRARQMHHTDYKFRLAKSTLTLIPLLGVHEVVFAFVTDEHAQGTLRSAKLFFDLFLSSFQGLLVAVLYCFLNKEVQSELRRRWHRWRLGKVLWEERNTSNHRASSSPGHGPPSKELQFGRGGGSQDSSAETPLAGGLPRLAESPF
As to the kind of experiment: cAMP assay, human GCGR cells. The conditions noted are these: cAMP assay. The gist of the method:
as §1

Setting [4] is: first determination (n1), read-out: Primary assay EC50 GIP-R (n1).
Where [5] appears, read: second determination (n2), read-out: Primary assay EC50 GIP-R (n2).
Where [6] appears, read: cAMP assay, first determination (n1), read-out: Primary assay EC50 GLP-1R n1.
Where [7] appears, read: cAMP assay, second determination (n2), read-out: Primary assay EC50 GLP-1R n2.
The mark [8] stands for this setting: mean of n1 and n2, read-out: Mean pM GLP-1R.
Setting [9] is: first determination (n1), read-out: Primary assay EC50 Gluc-R (n1).
Where [10] appears, read: second determination (n2), read-out: Primary assay EC50 Gluc-R (n2).
The mark [11] stands for this setting: Primary assay EC50 GIP-R (n1), first determination (n1).
Where [12] appears, read: read-out: Primary assay EC50 GIP-R (n2), second determination (n2).
[13] abbreviates: Primary assay EC50 Gluc-R (n1), first determination (n1).
The mark [14] stands for this setting: read-out: Primary assay EC50 Gluc-R (n2), second determination (n2).

For the compound `CC[C@H](C)[C@H](NC(=O)[C@](C)(Cc1ccccc1)NC(=O)[C@H](CCC(=O)O)NC(=O)[C@](C)(CCCCN)NC(=O)[C@H](C)NC(=O)[C@H](C)NC(=O)[C@H](CCC(=O)O)NC(=O)CNC(=O)[C@H](CCC(=O)O)NC(=O)[C@H](CC(C)C)NC(=O)[C@](C)(Cc1ccccc1)NC(=O)[C@H](CO)NC(=O)[C@](C)(CO)NC(=O)[C@@H](NC(=O)[C@H](CC(=O)O)NC(=O)[C@H](CO)NC(=O)[C@@H](NC(=O)[C@](C)(Cc1ccccc1)NC(=O)[C@H](CO)NC(=O)CNC(=O)[C@H](CCC(=O)O)NC(=O)[C@H](CCCCNC(=O)COCCOCCNC(=O)COCCOCCNC(=O)CC[C@H](NC(=O)CCCCCCCCCCCCCCCCC(=O)O)C(=O)O)NC(=O)[C@@H](N)Cc1c[nH]cn1)[C@@H](C)O)C(C)C)C(=O)N[C@@H](C)C(=O)N[C@@](C)(Cc1ccccc1)C(=O)N[C@H](C(=O)N[C@H](C(=O)N[C@@](C)(CCCCN)C(=O)NCC(=O)NCC(N)=O)C(C)C)C(C)C` [compound 127], the EC50 in test [1] (setting [4]) was ≥ 25 nM; in test [1] (setting [5]), ≥ 25.1 nM; in test [2] (setting [6]) it was ≥ 25000 pM; in test [2] (setting [7]), ≥ 25100 pM; in test [2] (setting [8]) it was ≥ 25100 pM; in test [3] (setting [9]), ≥ 25 nM. For the same compound, the EC50 in test [3] (setting [10]) is ≥ 25.1 nM.

As for `CCCCCCCCCCCC(=O)N[C@@H](CCC(=O)NCCCC[C@H](NC(=O)[C@H](C)NC(=O)[C@H](C)NC(=O)[C@H](CCC(=O)O)NC(=O)CNC(=O)[C@H](CCC(=O)O)NC(=O)[C@H](CC(C)C)NC(=O)[C@](C)(Cc1ccccc1)NC(=O)[C@H](CO)NC(=O)[C@](C)(CO)NC(=O)[C@@H](NC(=O)[C@H](CC(=O)O)NC(=O)[C@H](CO)NC(=O)[C@@H](NC(=O)[C@](C)(Cc1ccccc1)NC(=O)[C@H](CO)NC(=O)CNC(=O)[C@H](CCC(=O)O)NC(=O)C(C)(C)NC(=O)[C@@H](N)Cc1c[nH]cn1)[C@@H](C)O)C(C)C)C(=O)N[C@@H](CCC(=O)O)C(=O)N[C@@](C)(Cc1ccccc1)C(=O)N[C@H](C(=O)N[C@@H](C)C(=O)N[C@@](C)(Cc1ccccc1)C(=O)N[C@H](C(=O)N[C@H](C(=O)N[C@@](C)(CCCCN)C(=O)NCC(=O)NCC(N)=O)C(C)C)C(C)C)[C@@H](C)CC)C(=O)O` [compound 128], the EC50 in test [1] (setting [4]) was ≥ 28 nM; in test [1] (setting [5]), ≥ 28 nM; in test [2] (setting [6]), 15 pM; in test [2] (setting [7]) it was 21 pM; in test [2] (setting [8]) it was 18.2 pM; in test [3] (setting [9]) it was ≥ 28 nM. In addition, the EC50 in test [3] (setting [10]) is ≥ 28 nM.

On to `CCCCCCCCCCCC(=O)N[C@@H](CCC(=O)N[C@@H](CCC(=O)N[C@@H](CCC(=O)NCCCC[C@H](NC(=O)[C@H](C)NC(=O)[C@H](C)NC(=O)[C@H](CCC(=O)O)NC(=O)CNC(=O)[C@H](CCC(=O)O)NC(=O)[C@H](CC(C)C)NC(=O)[C@](C)(Cc1ccccc1)NC(=O)[C@H](CO)NC(=O)[C@](C)(CO)NC(=O)[C@@H](NC(=O)[C@H](CC(=O)O)NC(=O)[C@H](CO)NC(=O)[C@@H](NC(=O)[C@](C)(Cc1ccccc1)NC(=O)[C@H](CO)NC(=O)CNC(=O)[C@H](CCC(=O)O)NC(=O)C(C)(C)NC(=O)[C@@H](N)Cc1c[nH]cn1)[C@@H](C)O)C(C)C)C(=O)N[C@@H](CCC(=O)O)C(=O)N[C@@](C)(Cc1ccccc1)C(=O)N[C@H](C(=O)N[C@@H](C)C(=O)N[C@@](C)(Cc1ccccc1)C(=O)N[C@H](C(=O)N[C@H](C(=O)N[C@@](C)(CCCCN)C(=O)NCC(=O)NCC(N)=O)C(C)C)C(C)C)[C@@H](C)CC)C(=O)O)C(=O)O)C(=O)O` [compound 130], for which the EC50 in test [1] (setting [4]) was ≥ 26 nM; in test [1] (setting [5]), ≥ 26 nM; in test [2] (setting [6]), 16 pM; in test [2] (setting [7]) it was 13 pM; in test [2] (setting [8]) it was 14.4 pM; in test [3] (setting [9]), ≥ 26 nM. Also, in test [3] (setting [10]), the EC50 was ≥ 26 nM.

As for `CCCCCCCCCCCC(=O)NCCCCCC(=O)NCCCC[C@H](NC(=O)[C@H](C)NC(=O)[C@H](C)NC(=O)[C@H](CCC(=O)O)NC(=O)CNC(=O)[C@H](CCC(=O)O)NC(=O)[C@H](CC(C)C)NC(=O)[C@](C)(Cc1ccccc1)NC(=O)[C@H](CO)NC(=O)[C@](C)(CO)NC(=O)[C@@H](NC(=O)[C@H](CC(=O)O)NC(=O)[C@H](CO)NC(=O)[C@@H](NC(=O)[C@](C)(Cc1ccccc1)NC(=O)[C@H](CO)NC(=O)CNC(=O)[C@H](CCC(=O)O)NC(=O)C(C)(C)NC(=O)[C@@H](N)Cc1c[nH]cn1)[C@@H](C)O)C(C)C)C(=O)N[C@@H](CCC(=O)O)C(=O)N[C@@](C)(Cc1ccccc1)C(=O)N[C@H](C(=O)N[C@@H](C)C(=O)N[C@@](C)(Cc1ccccc1)C(=O)N[C@H](C(=O)N[C@H](C(=O)N[C@@](C)(CCCCN)C(=O)NCC(=O)NCC(N)=O)C(C)C)C(C)C)[C@@H](C)CC` [compound 131], the EC50 was ≥ 29 nM in test [1] (setting [4]); ≥ 29 nM in test [1] (setting [5]); 14 pM in test [2] (setting [6]); 9.9 pM in test [2] (setting [7]); 11.7 pM in test [2] (setting [8]); ≥ 29 nM in test [3] (setting [9]). The EC50 in test [3] (setting [10]) is ≥ 29 nM.

As to `CCCCCCCCCCCC(=O)NCCCCCC(=O)NCCCCCC(=O)NCCCCCC(=O)NCCCC[C@H](NC(=O)[C@H](C)NC(=O)[C@H](C)NC(=O)[C@H](CCC(=O)O)NC(=O)CNC(=O)[C@H](CCC(=O)O)NC(=O)[C@H](CC(C)C)NC(=O)[C@](C)(Cc1ccccc1)NC(=O)[C@H](CO)NC(=O)[C@](C)(CO)NC(=O)[C@@H](NC(=O)[C@H](CC(=O)O)NC(=O)[C@H](CO)NC(=O)[C@@H](NC(=O)[C@](C)(Cc1ccccc1)NC(=O)[C@H](CO)NC(=O)CNC(=O)[C@H](CCC(=O)O)NC(=O)C(C)(C)NC(=O)[C@@H](N)Cc1c[nH]cn1)[C@@H](C)O)C(C)C)C(=O)N[C@@H](CCC(=O)O)C(=O)N[C@@](C)(Cc1ccccc1)C(=O)N[C@H](C(=O)N[C@@H](C)C(=O)N[C@@](C)(Cc1ccccc1)C(=O)N[C@H](C(=O)N[C@H](C(=O)N[C@@](C)(CCCCN)C(=O)NCC(=O)NCC(N)=O)C(C)C)C(C)C)[C@@H](C)CC` [compound 133], the EC50 is ≥ 27 nM in test [1] (setting [4]); ≥ 27 nM in test [1] (setting [5]); 34 pM in test [2] (setting [6]); 25 pM in test [2] (setting [7]); 29.4 pM in test [2] (setting [8]); ≥ 27 nM in test [3] (setting [9]). Besides, the EC50 in test [3] (setting [10]) was ≥ 27 nM.

Turning to `CC[C@H](C)[C@H](NC(=O)[C@](C)(Cc1ccccc1)NC(=O)[C@H](CCC(=O)O)NC(=O)[C@H](CCCCNC(=O)CC[C@H](NC(=O)CC[C@H](NC(=O)CCCCCCCCCCCOc1ccc(C(=O)O)cc1)C(=O)O)C(=O)O)NC(=O)[C@H](C)NC(=O)[C@H](C)NC(=O)[C@H](CCC(=O)O)NC(=O)CNC(=O)[C@H](CCC(=O)O)NC(=O)[C@H](CC(C)C)NC(=O)[C@](C)(Cc1ccccc1)NC(=O)[C@H](CO)NC(=O)[C@](C)(CO)NC(=O)[C@@H](NC(=O)[C@H](CC(=O)O)NC(=O)[C@H](CO)NC(=O)[C@@H](NC(=O)[C@](C)(Cc1ccccc1)NC(=O)[C@H](CO)NC(=O)CNC(=O)[C@H](CCC(=O)O)NC(=O)C(C)(C)NC(=O)[C@@H](N)Cc1c[nH]cn1)[C@@H](C)O)C(C)C)C(=O)N[C@@H](C)C(=O)N[C@@](C)(Cc1ccccc1)C(=O)N[C@H](C(=O)N[C@H](C(=O)N[C@@](C)(CCCCN)C(=O)NCC(=O)NCC(N)=O)C(C)C)C(C)C` [compound 138], the EC50 in test [1] (setting [11]) was ≥ 26 nM; in test [1] (setting [12]), ≥ 26 nM; in test [2] (setting [6]), 19 pM; in test [2] (setting [7]), 15 pM; in test [2] (setting [8]), 17.2 pM; in test [3] (setting [13]), ≥ 26 nM. Also, the EC50 in test [3] (setting [14]) is ≥ 26 nM.

Regarding `CC[C@H](C)[C@H](NC(=O)[C@](C)(Cc1ccccc1)NC(=O)[C@H](CCC(=O)O)NC(=O)[C@H](CCCCNC(=O)CC[C@H](NC(=O)CC[C@H](NC(=O)CC[C@H](NC(=O)CCCCCCCCCCCOc1ccc(C(=O)O)cc1)C(=O)O)C(=O)O)C(=O)O)NC(=O)[C@H](C)NC(=O)[C@H](C)NC(=O)[C@H](CCC(=O)O)NC(=O)CNC(=O)[C@H](CCC(=O)O)NC(=O)[C@H](CC(C)C)NC(=O)[C@](C)(Cc1ccccc1)NC(=O)[C@H](CO)NC(=O)[C@](C)(CO)NC(=O)[C@@H](NC(=O)[C@H](CC(=O)O)NC(=O)[C@H](CO)NC(=O)[C@@H](NC(=O)[C@](C)(Cc1ccccc1)NC(=O)[C@H](CO)NC(=O)CNC(=O)[C@H](CCC(=O)O)NC(=O)C(C)(C)NC(=O)[C@@H](N)Cc1c[nH]cn1)[C@@H](C)O)C(C)C)C(=O)N[C@@H](C)C(=O)N[C@@](C)(Cc1ccccc1)C(=O)N[C@H](C(=O)N[C@H](C(=O)N[C@@](C)(CCCCN)C(=O)NCC(=O)NCC(N)=O)C(C)C)C(C)C` [compound 139], the EC50 was ≥ 26 nM in test [1] (setting [11]); ≥ 26 nM in test [1] (setting [12]); 29 pM in test [2] (setting [6]); 22 pM in test [2] (setting [7]); 25.5 pM in test [2] (setting [8]); ≥ 26 nM in test [3] (setting [13]). Also, the EC50 in test [3] (setting [14]) was ≥ 26 nM.

Values taken from US10414811B2, “Protease-resistant lipidated GLP-1 analogs” (MEDIMMUNE LIMITED, priority 2015, dated 2019).
